Patent publication US20230019491A1, “PYRIMIDINE TBK/IKKe INHIBITOR COMPOUNDS AND USES THEREOF” (Merck Patent GmbH, priority 2017, published 2023)

Columns and labels:
IKKε = molecular target: T1, IKKε (Homo sapiens, UniProt Q14164); experiment: IKKε biochemical assay; settings: 10 point 1:4 dose response, 30 uM top concentration, 90 min at 25° C., LabChip EZ Reader II; read-out: IKKε_IC50
T1 sequence (Q14164 1-716): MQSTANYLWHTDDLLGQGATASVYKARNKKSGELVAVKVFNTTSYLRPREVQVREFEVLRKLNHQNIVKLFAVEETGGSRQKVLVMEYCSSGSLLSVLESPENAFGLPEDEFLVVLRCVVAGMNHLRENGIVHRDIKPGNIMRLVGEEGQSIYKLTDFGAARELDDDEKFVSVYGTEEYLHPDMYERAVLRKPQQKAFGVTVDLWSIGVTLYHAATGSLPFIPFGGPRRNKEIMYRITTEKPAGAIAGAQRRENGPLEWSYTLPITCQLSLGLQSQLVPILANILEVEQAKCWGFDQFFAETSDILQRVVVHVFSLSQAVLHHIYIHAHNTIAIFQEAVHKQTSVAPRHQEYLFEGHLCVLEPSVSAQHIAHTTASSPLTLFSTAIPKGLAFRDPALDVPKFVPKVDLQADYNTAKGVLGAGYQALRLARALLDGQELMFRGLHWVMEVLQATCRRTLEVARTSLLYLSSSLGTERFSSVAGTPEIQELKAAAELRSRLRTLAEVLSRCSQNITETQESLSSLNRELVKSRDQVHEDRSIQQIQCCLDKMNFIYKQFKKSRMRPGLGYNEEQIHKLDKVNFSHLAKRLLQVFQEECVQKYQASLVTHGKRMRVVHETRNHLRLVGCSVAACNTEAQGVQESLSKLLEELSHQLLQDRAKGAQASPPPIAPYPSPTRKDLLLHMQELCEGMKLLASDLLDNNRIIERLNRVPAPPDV
Summary of the method: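 Compounds in 1% DMSO final were incubated with IKKε enzyme and substrate at 25° C. for 90 min, then stopped. Substrate and product peaks were resolved by LabChip EZ Reader II mobility-shift read-out. Staurosporine at 10 uM final served as the full-inhibition control.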

TBK1 = molecular target: T2, TBK1 (Homo sapiens, UniProt Q9UHD2); experiment: TBK biochemical assay; settings: 10 point 1:4 dose response, 30 uM top concentration, 90 min at 25° C., LabChip EZ Reader II; read-out: TBK1_IC50
T2 sequence (Q9UHD2 1-729): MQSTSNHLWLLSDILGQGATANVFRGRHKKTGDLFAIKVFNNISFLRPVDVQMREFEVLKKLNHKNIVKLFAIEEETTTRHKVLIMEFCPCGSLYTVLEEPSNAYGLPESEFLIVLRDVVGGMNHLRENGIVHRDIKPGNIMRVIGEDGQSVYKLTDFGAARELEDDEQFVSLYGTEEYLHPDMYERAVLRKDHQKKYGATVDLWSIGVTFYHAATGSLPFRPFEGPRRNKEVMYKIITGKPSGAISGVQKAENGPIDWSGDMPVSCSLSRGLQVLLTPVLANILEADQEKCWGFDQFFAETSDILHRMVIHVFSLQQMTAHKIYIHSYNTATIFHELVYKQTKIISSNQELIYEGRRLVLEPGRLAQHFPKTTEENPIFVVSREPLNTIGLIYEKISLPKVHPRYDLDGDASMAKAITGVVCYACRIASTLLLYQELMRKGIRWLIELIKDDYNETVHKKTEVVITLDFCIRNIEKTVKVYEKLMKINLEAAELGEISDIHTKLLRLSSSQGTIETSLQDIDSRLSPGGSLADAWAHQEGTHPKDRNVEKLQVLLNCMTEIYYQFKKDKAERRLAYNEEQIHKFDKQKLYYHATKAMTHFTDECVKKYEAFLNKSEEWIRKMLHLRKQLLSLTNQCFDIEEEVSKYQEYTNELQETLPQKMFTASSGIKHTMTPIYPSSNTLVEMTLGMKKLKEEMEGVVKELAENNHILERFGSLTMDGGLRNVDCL
Summary of the method: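 Substrate and product were separated and quantified by microfluidic mobility-shift read (LabChip). 10 uM staurosporine served as the full-inhibition control, and the reference compound was tested from 1 uM final.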

IC50 (IKKε)	IC50 (TBK1)	SMILES
< 0.1 µM	< 0.1 µM	COc1nc(Nc2ncc(C)c(-c3ccc(O[C@H]4CCN(C(=O)[C@H](C)O)CC4(F)F)c(C#N)c3)n2)ccc1N1CCN(C2COC2)CC1 [Example 284, 2-[[(4S)-3,3-difluoro-1-[(2S)-2-hydroxypropanoyl]piperidin-4-yl]oxy]-5-[2-([6-methoxy-5-[4-(oxetan-3-yl)piperazin-1-yl]pyridin-2-yl]amino)-5-methylpyrimidin-4-yl]benzonitrile]
0.1 to 1 µM	0.1 to 1 µM	COc1nc(Nc2ncc(C)c(-c3ccc(O[C@@H]4CCN(C(=O)[C@H](C)O)CC4(F)F)c(C#N)c3)n2)ccc1N1CCN(C2COC2)CC1 [Example 285, 2-[[(4R)-3,3-difluoro-1-[(2S)-2-hydroxypropanoyl]piperidin-4-yl]oxy]-5-[2-([6-methoxy-5-[4-(oxetan-3-yl)piperazin-1-yl]pyridin-2-yl]amino)-5-methylpyrimidin-4-yl]benzonitrile]
0.1 to 1 µM	< 0.1 µM	COc1nc(Nc2ncc(C)c(-c3ccc(OC4CCN(C(=O)[C@@H](C)O)CC4(F)F)c(C#N)c3)n2)ccc1N1CCN(C2COC2)CC1 (stereo partly drawn) [Example 286, 2-([33-difluoro-1-[(2R)-2-hydroxypropanoyl]piperidin-4-yl]oxy)-5-[2-([6-methoxy-5-[4-(oxetan-3-yl)piperazin-1-yl]pyridin-2-yl]amino)-5-methylpyrimidin-4-yl]benzonitrile]
< 0.1 µM	< 0.1 µM	COc1nc(Nc2ncc(F)c(-c3ccc(OC4CCN(C(=O)[C@H](C)O)CC4(F)F)c(C#N)c3)n2)ccc1N1CCN(C2COC2)CC1 (stereo partly drawn) [Example 287, 2-([3,3-difluoro-1-[(2S)-2-hydroxypropanoyl]piperidin-4-yl]oxy)-5-[5-fluoro-2-([6-methoxy-5-[4-(oxetan-3-yl)piperazin-1-yl]pyridin-2-yl]amino)pyrimidin-4-yl]benzonitrile]
< 0.1 µM	< 0.1 µM	COc1nc(Nc2ncc(F)c(-c3ccc(O[C@@H]4CCN(C(=O)[C@H](C)O)CC4(F)F)c(C#N)c3)n2)ccc1N1CCN(C2COC2)CC1 [Example 289, 2-[[(4R)-3,3-difluoro-1-[(2S)-2-hydroxypropanoyl]piperidin-4-yl]oxy]-5-[5-fluoro-2-([6-methoxy-5-[4-(oxetan-3-yl)piperazin-1-yl]pyridin-2-yl]amino)pyrimidin-4-yl]benzonitrile]
< 0.1 µM	< 0.1 µM	COc1nc(Nc2ncc(F)c(-c3ccc(OC4CCN(C(=O)CO)CC4(F)F)c(C#N)c3)n2)ccc1N1CCN(C2COC2)CC1 (centres unmarked) [Example 290, 2-{[3,3-difluoro-1-(2-hydroxyacetyl)piperidin-4-yl]oxy}-5-[5-fluoro-2-({6-methoxy-5-[4-(oxetan-3-yl)piperazin-1-yl]pyridin-2-yl}amino)pyrimidin-4-yl]benzonitrile]
< 0.1 µM	< 0.1 µM	COc1nc(Nc2ncc(F)c(-c3ccc(OC4CCN(C(=O)C(C)O)CC4(F)F)c(C#N)c3)n2)ccc1N1CCN(C2COC2)CC1 (centres unmarked) [Example 291, 2-{[33-difluoro-1-(2-hydroxypropanoyl)piperidin-4-yl]oxy}-5-[5-fluoro-2-({6-methoxy-5-[4-(oxetan-3-yl)piperazin-1-yl]pyridin-2-yl}amino)pyrimidin-4-yl]]
< 0.1 µM	< 0.1 µM	COc1nc(Nc2ncc(F)c(-c3ccc(OC4CCN(C(=O)[C@H](C)O)CC4(F)F)c(C#N)c3)n2)ccc1N1CCN(C2COC2)CC1 (stereo partly drawn) [Example 292, 2-({3,3-difluoro-1-[(2S)-2-hydroxypropanoyl]piperidin-4-yl}oxy)-5-[5-fluoro-2-({6-methoxy-5-[4-(oxetan-3-yl)piperazin-1-yl]pyridin-2-yl}amino)pyrimidin-4-yl]benzonitrile]
< 0.1 µM	< 0.1 µM	COc1nc(Nc2ncc(F)c(-c3ccc(OC4CCN(C(=O)C(C)O)CC4(F)F)c(C#N)c3)n2)ccc1C1CCN(C2COC2)CC1 (centres unmarked) [Example 294, 2-{[33-difluoro-1-(2-hydroxypropanoyl)piperidin-4-yl]oxy}-5-[5-fluoro-2-({6-methoxy-5-[1-(oxetan-3-yl)piperidin-4-yl]pyridin-2-yl}amino)pyrimidin-4-yl]benzonitrile]
< 0.1 µM	< 0.1 µM	CC(O)C(=O)N1CC[C@H](Oc2ccc(-c3nc(Nc4ccc(N5CCN(C6COC6)CC5)cc4)ncc3F)cc2C#N)[C@H](F)C1 (stereo partly drawn) [Example 295, 2-{[(3R,4S)-3-fluoro-1-(2-hydroxypropanoyl)piperidin-4-yl]oxy}-5-[5-fluoro-2-({4-[4-(oxetan-3-yl)piperazin-1-yl]phenyl}amino)pyrimidin-4-yl]benzonitrile]
< 0.1 µM	< 0.1 µM	C[C@H](O)C(=O)N1CC[C@H](Oc2ccc(-c3nc(Nc4ccc(N5CCN(C6COC6)CC5)cc4)ncc3F)cc2C#N)[C@H](F)C1 [Example 296, 2-({3-fluoro-1-[(2S)-2-hydroxypropanoyl]piperidin-4-yl}oxy)-5-[5-fluoro-2-({4-[4-(oxetan-3-yl)piperazin-1-yl]phenyl}amino)pyrimidin-4-yl]benzonitrile]
< 0.1 µM	< 0.1 µM	COc1nc(Nc2ncc(F)c(-c3ccc(O[C@H]4CCN(C(=O)[C@H](C)O)C[C@H]4F)c(C#N)c3)n2)ccc1N1CCN(C2COC2)CC1 [Example 298, 2-({3-fluoro-1-[(2S)-2-hydroxypropanoyl]piperidin-4-yl}oxy)-5-[5-fluoro-2-({6-methoxy-5-[4-(oxetan-3-yl)piperazin-1-yl]pyridin-2-yl}amino)pyrimidin-4-yl]benzonitrile]
< 0.1 µM	< 0.1 µM	CC(O)C(=O)N1CCC(Oc2ccc(-c3nc(Nc4ccc(N5CCN(C6COC6)CC5)cc4)ncc3F)cc2C#N)C(F)(F)C1 (centres unmarked) [Example 299, 2-{[3,3-difluoro-1-(2-hydroxypropanoyl)piperidin-4-yl]oxy}-5-[5-fluoro-2-({4-[4-(oxetan-3-yl)piperazin-1-yl]phenyl}amino)pyrimidin-4-yl]benzonitrile]
< 0.1 µM	< 0.1 µM	C[C@H](O)C(=O)N1CCC(Oc2ccc(-c3nc(Nc4ccc(N5CCN(C6COC6)CC5)cc4)ncc3F)cc2C#N)C(F)(F)C1 (stereo partly drawn) [Example 300, 2-({3,3-difluoro-1-[(2S)-2-hydroxypropanoyl]piperidin-4-yl}oxy)-5-[5-fluoro-2-({4-[4-(oxetan-3-yl)piperazin-1-yl]phenyl}amino)pyrimidin-4-yl]benzonitrile]
< 0.1 µM	< 0.1 µM	C[C@H](O)C(=O)N1CCC(Oc2ccc(-c3nc(Nc4ccc(C5CCN(C6COC6)CC5)cc4)ncc3F)cc2C#N)C(F)(F)C1 (stereo partly drawn) [Example 301, 2-({3,3-difluoro-1-[(2S)-2-hydroxypropanoyl]piperidin-4-yl}oxy)-5-[5-fluoro-2-({4-[1-(oxetan-3-yl)piperidin-4-yl]phenyl}amino)pyrimidin-4-yl]benzonitrile]

SMILES	IC50 (IKKε)	IC50 (TBK1)
COc1nc(Nc2ncc(F)c(-c3ccc(O[C@H]4CCN(C(=O)[C@H](C)O)CC4(F)F)c(C#N)c3)n2)ccc1N1CCN(C2COC2)CC1 [Example 288, 2-[[(4S)-33-difluoro-1-[(2S)-2-hydroxypropanoyl]piperidin-4-yl]oxy]-5-[5-fluoro-2-([6-methoxy-5-[4-(oxetan-3-yl)piperazin-1-yl]pyridin-2-yl]amino)pyrimidin-4-yl]benzonitrile]	< 0.1 µM	< 0.1 µM
